Legend:
[1] = test system: rat common carotid artery occlusion-disobliteration (4-VO) model; experiment: Water maze learning ability, rat 4-VO model; format: in vivo
Source text: Nine-week-old male Crlj:WI rats were intraperitoneally administered pentobarbital sodium and, while under anesthesia, were secured in the prone position to a brain stereotaxic instrument. An occipital incision was made in the skin and muscle layer of the neck region, the left and right pterygoid foramina of the first cervical vertebra were exposed, and the vertebral arteries were thermocoagulated by inserting the tip of a soldering iron into each pterygoid foramen, thereby permanently occluding the bilateral vertebral arteries. Next, a midline incision was made in the anterior region of the neck, the common carotid arteries on both sides were exposed and detached, a silicone tube was passed under the arteries and placed annularly around the arteries, following which the skin of the neck region was sutured together. On the day after vertebral arterial cauterization, the animals were anesthetized with diethyl ether, then immobilized in the supine position. Both common carotid arteries were exposed using the silicone tube that had been placed on the common carotid arteries in the neck region and were temporarily occluded for 10 minutes with Sugita clips, then reopened. Aside from ischemia and disobliteration, the same procedure was carried out also on a normal group ([…]).
• Test Group 1: 4-VO+medium, 8 days • Test Group 2: 4-VO+present drug, 10 mg/kg, twice daily, for 8 days • Test Group 3: 4-VO+present drug, 1 mg/kg, twice daily, for 42 days (evaluation of nerve cell number only) (2) Evaluation of number of nerve cells in CA1 region excised from brain (Groups 4 to 7) following measurement of water maze learning ability (Groups 4 to 7) • Test Group 4: normal (sham group)+medium, 42 days (normal control) • Test Group 5: 4-VO+medium, 42 days (solvent control) • Test Group 6: 4-VO+present drug, 10 mg/kg, twice daily for 42 days • Test Group 7: 4-VO+solvent for 8 days+present drug, 10 mg/kg, twice daily, for 34 days (evaluation of regenerative activity) (3) Pathology: Perfusion and fixing of the brain was carried out on day 8 in Test Groups 1 and 2, and on the day after the water maze learning ability test in Groups 4 to 7. The number of nerve cells was then counted by the same method as described above in Test 1. In Test Group 3, after drug administration was stopped, the brains were fixed at the same time as in Test Groups 4 to 7. (4) Measurement of Water Maze Learning Ability
Using Test Groups […], the […] were investigated with a Morris water maze in such a way as to avoid a bias between the groups.
A clear acrylic platform (about 12 cm in diameter and about 30 cm in height) which cannot be visually detected and a circular pool (about 148 cm in diameter and about 44 cm in height) made of gray vinyl chloride and filled with water (water temperature, 17 to 18° C.) to a height of about 32 cm so that the platform is hidden by the water were used.
The pool was divided into four quadrants, the platform was placed at the center of the fourth quadrant (about 36 cm from the center of the pool), and light bulbs were placed at the perimeter of the pool to provide a spatial reference.
Following the final drug dose, a drug-free period of at least 2 weeks was provided, after which the rat was placed in the pool from one of several points A to E with its head facing the circular pool wall, and the time it took to reach the platform (goal latency; seconds) was measured with a stopwatch (the measurement time was a maximum of 90 seconds). When the rat reached the platform within 90 seconds and remained on the platform for 30 seconds, it was judged to be aware of the platform location and measurement was brought to an end.
Goal latency measurements were carried out twice daily (once in the morning, and once in the afternoon) on days 1 to 4. The rat was placed in the pool from the various points A to E with its head facing the wall of the circular pool. […]

[2] = test system: STZ induced diabetes model; experiment: Oral glucose tolerance test (OGTT), insulin, STZ induced diabetes model; format: in vivo; details: OGTT 2 g/kg, week 13; STZ rat; Test Group 3: 3 mg/kg oral twice daily
Experimental: Female Sprague-Dawley rats (8- to 11-week-old; Japan SLC, Inc.) were intraperitoneally administered 40 mg/kg of a citrate buffer (pH, approx. 4.5) of streptozotocin (STZ; Sigma). A normal control group was intraperitoneally given only the citrate buffer. Administration was carried out in accordance with the intended route of administration for clinical use. In Test Group 3, forced administration was carried out orally using a disposable syringe barrel and a rat stomach probe. In Test Group 4, intramuscular administration was carried out uniformly at four places within the muscle along the sciatic nerve in the femoral portion of the left leg. For subcutaneous administration in test Group 5, the animals were ether anesthetized, and subcutaneous administration was carried out in the dorsal region using a disposable syringe barrel and a disposable 25 G syringe needle. The volume of solution administered was computed based on the latest body weight. Thirteen weeks after the start of test substance administration, an oral glucose tolerance test (OGTT) was conducted on rats fasted for 18 hours. After drawing blood from the caudal vein of the fasting rats, 2 g/kg of glucose was orally force-fed. About 500 μL of blood was similarly collected from the caudal vein 30, 60 and 120 minutes after glucose administration, of which about 400 μL was EDTA-2Na treated, then centrifuged (3,000 rpm, 4° C., 10 min) with a centrifuge. The plasma was thereby collected, and the blood sugar was measured using a 7170 Clinical Analyzer (Hitachi, Ltd.). The remaining approximately 100 μL of blood was centrifuged (3,000 rpm, 4° C., 10 min) with a centrifuge, the serum was collected, and the insulin level was measured (ELISA method; Levis Insulin Kit (Shibayagi Co., Ltd)).

[3] = Test Group 6: 10 mg/kg oral twice daily 42 days
[4] = Test Group 7: solvent 8 days, then 10 mg/kg oral twice daily 34 days

O=C(O)COc1cccc2c1CCC=C2CCO/N=C(\c1ccccc1)c1cccnc1 [present drug, ({5-[2-({[(1E)-phenyl(pyridin-3-yl)methylene]amino}oxy)ethyl]-7,8-dihydronaphthalen-1-yl}oxy)acetic acid]
Distance traveled until rat reaches platform, AUC for Days 1 to 4 (average) [1, 3]: 3932.8 ± 1115.1
Goal latency (seconds) Acquisition trials Day 1 (average) [1, 3]: 71.8 ± 18.3 s
Goal latency (seconds) Acquisition trials Day 2 (average) [1, 3]: 58.8 ± 22.1 s
Goal latency (seconds) Acquisition trials Day 3 (average) [1, 3]: 41.3 ± 28.8 s
Goal latency (seconds) Acquisition trials Day 4 (average) [1, 3]: 33.9 ± 23.2 s
Goal latency (seconds) Acquisition trials Trials 1 to 8 (average) [1, 3]: 51.5 ± 11.9 s
Goal latency, AUC for Days 1 to 4 (average) [1, 3]: 152.9 ± 42.7
goal latency (seconds) and distance traveled relative to the solvent control group (Test Group 5) ([1]; Test Group 6: oral 10 mg/kg twice daily): significant shortening
goal latency (seconds) and distance traveled relative to the solvent control group (Test Group 5) ([1]; Test Group 7: medium up to day 8, oral 10 mg/kg twice daily from day 9): significant shortening
Distance traveled until rat reaches platform, AUC for Days 1 to 4 (average) [1, 4]: 3850.5 ± 832.5
Goal latency (seconds) Acquisition trials Day 1 (average) [1, 4]: 73.8 ± 15.2 s
Goal latency (seconds) Acquisition trials Day 2 (average) [1, 4]: 55.4 ± 29.6 s
Goal latency (seconds) Acquisition trials Day 3 (average) [1, 4]: 41.7 ± 26.7 s
Goal latency (seconds) Acquisition trials Day 4 (average) [1, 4]: 25.8 ± 15.2 s
Goal latency (seconds) Acquisition trials Trials 1 to 8 (average) [1, 4]: 49.2 ± 10.1 s
Goal latency, AUC for Days 1 to 4 (average) [1, 4]: 146.9 ± 40.5
Insulin (ng/mL) After 30 minutes [2]: 2.197 ± 2.062 ng/mL
Insulin (ng/mL) After 60 minutes [2]: 1.808 ± 1.521 ng/mL
Insulin (ng/mL) After 120 minutes [2]: 2.130 ± 2.087 ng/mL
Insulin (ng/mL) Before glucose loading [2]: 2.138 ± 1.722 ng/mL

Reference: patent publication US8617614B2, “Sustained release preparation for tissue regeneration therapy” (Ono Pharmaceutical Co., Ltd., priority 2006, dated 2013)
